Measured values from paper PMC10283505, “CVM-1118 (foslinanib), a 2-phenyl-4-quinolone derivative, promotes apoptosis and inhibits vasculogenic mimicry via targeting TRAP1” (Pathology and Oncology Research, 2023).

Assays:
[1] = system: COLO205; test: Succinate level (Abcam kit, hypoxia); type: cell-based, human; details: COLO205, 100 nM, 72 h, vs vehicle control
Description: (§1) Succinate levels in the cells were assessed using the Abcam assay kit (ab204718). Cells were grown under hypoxic conditions (1% O2) at 37°C using a ProOx P110 Oxygen Controller (BioSpherix) and hypoxia chamber to establish a consistent and steady expression of HIF-1α in these cells for the experiments. At 80% confluence, cells were rinsed with phosphate buffered saline (PBS; 137 mM NaCl/2.7 mM KCl/10 mM Na2HPO4/1.8 mM KH2PO4, pH 7.4), then harvested by scrapping into a modified radio-immunoprecipitation assay (RIPA) buffer (100 mM Tris-HCl, 150 mM NaCl, 1% deoxycholate, 1% Triton X-100, 0.1% SDS, pH 7.4) plus protease inhibitor cocktail (Complete Mini; Roche) using 100 μL buffer per 1 × 10^6 cells. After sonication using a Fisher sonic dismembrator with microprobe (Fisher Scientific; five pulses at 2 s intervals) and centrifugation at 13,000 rpm for 30 min, the protein lysates (supernatants) were recovered, and protein concentrations determined using a bicinchoninic acid (BCA) assay (Bio-Rad). The samples were then deproteinated using Abcam 10 kDa Spin Columns (ab93349; which reduced the protein concentration by about 90%) and the samples were standardized at <10 μg of protein per sample per 50 μL of assay volume (as directed by the Abcam technical response team for working with these samples). The concentration of succinate (nmol/μL or μmol/mL or […]) for each sample was calculated after subtracting a background control (which was the sample run with assay buffer in place of the succinate converter component to account for and subtract any contaminating signal generated by NADH), as follows: Succinate = (A/B) × D; where: A = Amount of succinate (succinic acid) from the Standard Curve; B = Sample volume added into the reaction well (μL); D = Sample dilution factor. Two separate experiments were performed for each cell line.

[2] = system: MDA-MB-231; test: Succinate level (Abcam kit, hypoxia); type: cell-based, human; details: MDA-MB-231, 100 nM, 72 h, vs vehicle control
Description: as §1

[3] = system: SK-MEL28; test: Succinate level (Abcam kit, hypoxia); type: cell-based, human; details: SK-MEL28, 100 nM, 72 h, vs vehicle control
Description: as §1

[4] = system: SKOV3; test: Succinate level (Abcam kit, hypoxia); type: cell-based, human; details: SKOV3, 100 nM, 72 h, vs vehicle control
Description: as §1

[5] = system: MDA-MB-435; test: NCI 60 cytotoxicity screening; type: cell-based; details: Homo sapiens; MDA-MB-435, Melanoma
[6] = system: NCI-H460; test: NCI 60 cytotoxicity screening; type: cell-based; details: Homo sapiens; NCI-H460, NSCLC
[7] = system: A549/ATCC; test: NCI 60 cytotoxicity screening; type: cell-based; details: Homo sapiens, NSCLC
[8] = system: Notch4 ICD; test: qPCR analysis of Notch4 expression; type: cell-based, human; details: C8161, 10 nM, 8–72 h
Description: For the qPCR analysis of Nodal and Notch expression, total RNA was isolated from cells using the PerfectPure RNA Cell Isolation kit (5Prime) and then reverse-transcribed using 1 μg RNA, RT master mix cocktail and MMLV reverse transcriptase. qPCR was performed on a 7500 Real-Time PCR System (Life Technologies) using manufacturer recommended protocol. TaqMan gene expression human primer/probe sets (Applied Biosystems) utilized were Nodal (Hs00250630_s1) and Notch4 (Hs00270200_m1). Target gene expression was normalized to appropriate house-keeping genes (e.g., RPLP0 or GAPDH). Data was analyzed using Life Technologies Sequence Detection Software.

[9] = system: Nodal; test: Western blot of Nodal (ProNodal) protein; type: cell-based, human; details: C8161, 10 nM, 24 h, corrected to β-actin
Description: Cells at 80% confluence were rinsed with PBS, harvested by scrapping into a modified RIPA buffer plus protease inhibitor cocktail using 100 μL buffer per 1 × 10^6 cells. After sonication and centrifugation, the protein concentrations in the supernatants were determined using a BCA assay (Thermo Fisher Scientific). […] Nodal was detected using a mouse monoclonal anti-Nodal antibody (sc-373910; Santa Cruz; 1 μg/ml in 20 mM Tris/150 mM NaCl/0.1% [w/v] Tween 20, pH 7.4 [TBST] plus 5% BSA) followed by an anti-mouse plus horseradish peroxidase (HRP) secondary antibody (NXA931; GE Healthcare; 1 μg/ml in TBST plus 5% BSA) and enhanced chemiluminescence (ECL; GE Healthcare). Smad2 was detected using a rabbit polyclonal anti-Smad2/3 antibody (07-408; Millipore; 1 μg/ml in TBST plus 5% BSA) followed by an anti-rabbit plus HRP secondary antibody (NA934V; GE Healthcare; 1 μg/ml in TBST plus 5% BSA) and ECL. […] To assess relative changes in protein expression, the exposed films were digitized using a ChemiDoc XRS imager (Bio-Rad Laboratories) and the relative amount of protein determined against the untreated control cells normalized to a value of 1.0 using the imager’s Quantity One software package (Bio-Rad Laboratories) and corrected for loading of protein into each lane against the β-actin protein measured in the control lane.

Question: `COc1ccc2[nH]c(-c3cccc(F)c3)cc(=O)c2c1O` [CVM-1125] was tested. Which “reduction of succinate levels” value [1] did it give?
Answer: Its value is 18%.

Question: What about the “reduction of succinate levels” value [2] of the same compound?
Answer: Its value is 20%.

Question: And the “reduction of succinate levels” value [3]?
Answer: Its value is 23%.

Question: And the “reduction of succinate levels” value [4]?
Answer: The value was 35%.

Question: And the GI50 [5]?
Answer: Its GI50 is less than 10 nM.

Question: What about the GI50 [6] of the same compound?
Answer: The GI50 was 32.8 nM.

Question: And the GI50 [7]?
Answer: The GI50 was 41.4 nM.

Question: What does the source list for `COc1ccc2[nH]c(-c3cccc(F)c3)cc(=O)c2c1OP(=O)(O)O` [CVM-1118]?
Answer: expression of Notch4 ICD (mRNA) [8]: decreased; reduction of Nodal protein levels [9]: 63%
